Measurements reported in US20210171948A1, “COMPOSITIONS AND METHODS FOR TARGETING GLYPICAN-2 IN THE TREATMENT OF CANCER” (Shepherd Therapeutics, Inc., priority 2019, published 2021).
pIC50: −log10 of the molar value. d = 2'-deoxy (DNA); r = 2'-OH (RNA)

Experiments:
KELLY cells [1] = experiment: Topotecan IC50 in siRNA-transfected cells, Cell Titer Glo 2.0 viability (Example 10); type: cell-based
[2] = tested on: CHP212 neuroblastoma cell line; experiment: Cell viability after siRNA transfection, 96 hour (Example 4, FIG. 4B); type: cell-based; conditions: 96 hour incubation (FIG. 4B)
Method: The extent of GPC2 mRNA reduction was assessed with additional GPC2 siRNA sequences in the CHP212 neuroblastoma cell line. Cells were transfected with either a scrambled control siRNA or with GPC2 siRNA sequences 3 or 5, or with siRNA sequences 6-11 (Sigma) using the RNAiMAX Lipofectamine kit (Invitrogen, Carlsbad, Calif.) as previously described. Following a 96 hour incubation period, total RNA samples were collected and viability was measured in parallel plated cells.

RH41 cells = experiment: Cell viability after siRNA transfection, Cell Titer Glo 2.0 (Example 3); type: cell-based; conditions: RH41 (Rhabdomyosarcoma); 96 hour incubation
Method: (§1) GPC2 mRNA knockdown and changes in cell viability were assessed in multiple cancer cell lines. Cells were transfected with either a scrambled control siRNA or with GPC2 siRNA sequence 3 or sequence 5 from Table 7 using the RNAiMAX Lipofectamine kit (Invitrogen, Carlsbad, Calif.) as previously described in Example 2, either in 96 well format (for viability assays) or 6 well format (for knockdown assessment). Following a 96 hour incubation period, cells were washed and the viability measurement was assessed using Cell Titer Glo 2.0. Total RNA was isolated from the 6 well plate samples to determine knockdown efficiency.

GIST-T1 cells = experiment: as above; type: cell-based; conditions: GIST-T1 (Gastrointestinal Stromal); 96 hour incubation
Method: as §1

SNU16 cells = experiment: as above; type: cell-based; conditions: SNU16 (Gastric); 96 hour incubation
Method: as §1

MCF7 cells = experiment: as above; type: cell-based; conditions: MCF7 (Breast); 96 hour incubation
Method: as §1

CHP212 cells = experiment: as above; type: cell-based; conditions: CHP212 (Neuroblastoma); 96 hour incubation
Method: as §1

TOV112D cells = experiment: as above; type: cell-based; conditions: TOV112D (Ovarian Carcinoma); 96 hour incubation
Method: as §1

SKNAS cells [3] = experiment: as above; type: cell-based; conditions: SKNAS (Neuroblastoma); 96 hour incubation
Method: as §1

RH30 cells = experiment: as above; type: cell-based; conditions: RH30 (Rhabdomyosarcoma); 96 hour incubation
Method: as §1

TC32 cells = experiment: as above; type: cell-based; conditions: TC32 (Ewing's Sarcoma); 96 hour incubation
Method: as §1

TC71 cells = experiment: as above; type: cell-based; conditions: TC71 (Ewing's Sarcoma); 96 hour incubation
Method: as §1

COV362 cells = experiment: as above; type: cell-based; conditions: COV362 (Ovarian Carcinoma); 96 hour incubation
Method: as §1

IMR32 cells = experiment: as above; type: cell-based; conditions: IMR32 (Neuroblastoma); 96 hour incubation
Method: as §1

GPC2 protein = GPC2 protein expression by flow cytometry of immunostained cells after siRNA transfection; type: cell-based, human
Method: The extent of GPC2 mRNA reduction (knockdown) and corresponding protein level expression changes were assessed in three neuroblastoma cell lines following siRNA knockdown of GPC2. The CHP212 neuroblastoma cell line (FIG. 5A and FIG. 5D), the SH-SY5Y neuroblastoma cell line (FIG. 5B and FIG. 5E) and the CHLA90 neuroblastoma cell line (FIG. 5C and FIG. 5F) were transfected with GPC2 siRNA sequences 5 and 7 from Table 7 and a scrambled control siRNA using the RNAiMAX Lipofectamine kit (Invitrogen, Carlsbad, Calif.) as previously described. Following a 24, 48, or 72 hour incubation period, cells were washed and total RNA was isolated for measuring GPC2 mRNA expression. For protein analysis, cells were fixed, immunostained using an antibody against GPC2 protein, protein expression was measured via flow cytometry. As shown, GPC2 mRNA knockdown was observed beginning at the 24 hr time point and lasted for at least 72 hours. GPC2 protein expression started to decrease at the 48 hr time point.

CHLA-172 cells [4] = experiment: Etoposide IC50 in siRNA-transfected cells, Cell Titer Glo 2.0 viability (Example 9); type: cell-based
CHLA-136 cells [5] = experiment: as above; type: cell-based; conditions: CHLA-136 cells transfected with the labelled siRNA; etoposide added 24 hours post transfection, 72 hour incubation
KELLY cells [6] = experiment: as above; type: cell-based
SKNAS cells [7] = experiment: as above; type: cell-based
CHLA-172 cells [8] = experiment: Cyclophosphamide IC50 in siRNA-transfected cells, Cell Titer Glo 2.0 viability (Example 7); type: cell-based
CHLA-136 cells [9] = experiment: as above; type: cell-based
KELLY cells [10] = experiment: as above; type: cell-based
SKNAS cells [11] = experiment: as above; type: cell-based

GPC2 siRNA 5: siRNA duplex: sense CUCAGUAGCCCAGCACUCU[dT][dT] (SEQ ID NO: 211), anti-sense AGAGUGCUGGGCUACUGAG[dT][dT] (SEQ ID NO: 212) (sense CUCAGUAGCCCAGCACUCUTT; antisense AGAGUGCUGGGCUACUGAGTT; sugars from the 5' end r19 d2, backbone not given here; listed as Homo sapiens)
Data Summary: effect of knockdown on sensitivity to topotecan (KELLY cells [1]; KELLY): not increase sensitivity to topotecan | pIC50 (KELLY cells [1]; KELLY cells transfected with the labelled siRNA, topotecan added 24 hours post transfection, 72 hour incubation): 7.22 | Viability decrease among sequences 3, 5, 6-11 [2]: greater viability decrease | % Viability (RH41 cells): 31.32% | % Viability (GIST-T1 cells): 40.13% | % Viability (SNU16 cells): 89.01% | % Viability (MCF7 cells): 67.11% | % Viability (CHP212 cells): 64.46% | % Viability (TOV112D cells): 81.15% | % Viability (SKNAS cells [3]): 56.14% | % Viability (RH30 cells): 46.03% | % Viability (TC32 cells): 77.18% | % Viability (TC71 cells): 100.92% | % Viability (COV362 cells): 94.27% | % Viability (IMR32 cells): 63.62% | GPC2 protein expression (Mean Fluorescence (FL1) Intensity) (GPC2 protein; CHLA90 cells, at 72 hours (FIG. 5F)): Reduced GPC2 protein expression | Time point at which GPC2 protein expression started to decrease (GPC2 protein; CHP212, SH-SY5Y and CHLA90 neuroblastoma cell lines): 48 h | GPC2 protein expression (Mean Fluorescence (FL1) Intensity) (GPC2 protein; CHP212 cells, at 48 and 72 hours (FIG. 5D)): Reduced GPC2 protein expression | GPC2 protein expression (Mean Fluorescence (FL1) Intensity) (GPC2 protein; SH-SY5Y cells, at 48 and 72 hours (FIG. 5E)): Reduced GPC2 protein expression | Data Summary: effect of knockdown on sensitivity to etoposide (CHLA-172 cells [4]; CHLA-172): increases sensitivity to etoposide | pIC50 (CHLA-172 cells [4]; CHLA-172 cells transfected with the labelled siRNA, etoposide added 24 hours post transfection, 72 hour incubation): 6.05 | pIC50 (CHLA-136 cells [5]): 7.10 | Data Summary: effect of knockdown on sensitivity to etoposide (KELLY cells [6]; KELLY): increases sensitivity to etoposide | pIC50 (KELLY cells [6]; KELLY cells transfected with the labelled siRNA, etoposide added 24 hours post transfection, 72 hour incubation): 7.22 | Data Summary: effect of knockdown on sensitivity to etoposide (SKNAS cells [7]; SKNAS): increases sensitivity to etoposide | pIC50 (SKNAS cells [7]; SKNAS cells transfected with the labelled siRNA, etoposide added 24 hours post transfection, 72 hour incubation): 7.70 | Data Summary: effect of knockdown on sensitivity to cyclophosphamide (CHLA-172 cells [8]; CHLA-172): increases sensitivity to | pIC50 (CHLA-172 cells [8]; CHLA-172 cells transfected with the labelled siRNA, cyclophosphamide added 24 hr post transfection, 72 hour incubation): 5.00 | Data Summary: effect of knockdown on sensitivity to cyclophosphamide (CHLA-136 cells [9]; CHLA-136): not increase sensitivity | pIC50 (CHLA-136 cells [9]; CHLA-136 cells transfected with the labelled siRNA, cyclophosphamide added 24 hr post transfection, 72 hour incubation): 5.30 | Data Summary: effect of knockdown on sensitivity to cyclophosphamide (KELLY cells [10]; KELLY): increases sensitivity to | pIC50 (KELLY cells [10]; KELLY cells transfected with the labelled siRNA, cyclophosphamide added 24 hr post transfection, 72 hour incubation): 6.00 | Data Summary: effect of knockdown on sensitivity to cyclophosphamide (SKNAS cells [11]; SKNAS): increases sensitivity to | pIC50 (SKNAS cells [11]; SKNAS cells transfected with the labelled siRNA, cyclophosphamide added 24 hr post transfection, 72 hour incubation): 6.32
